Assay results reported in ChEMBL document CHEMBL3352438, “Synthesis, characterization, molecular docking and anti-tubercular activity of Plumbagin-Isoniazid Analog and its β-cyclodextrin conjugate” (2014).
Converted amounts (≈) assume the structure as drawn.

Columns and labels:
Type in all cases: functional
Conditions in all cases: ATCC 27294, 120 h
[1] = test system: Mycobacterium tuberculosis; test: Antitubercular activity against Mycobacterium tuberculosis ATCC 27294 in 7H9 medium after 5 days by Alamar blue assay
[2] = test system: Mycobacterium tuberculosis; test: Antitubercular activity against Mycobacterium tuberculosis ATCC 27294 in high iron condition after 5 days by Alamar blue assay
[3] = test system: Mycobacterium tuberculosis; test: Antitubercular activity against Mycobacterium tuberculosis ATCC 27294 in low iron condition after 5 days by Alamar blue assay

| SMILES | MIC [1] | MIC [2] | MIC [3] |
| --- | --- | --- | --- |
| NNC(=O)c1ccncc1 [ISONIAZID] | 0.25 µg/mL (≈ 1.82 µM) | 0.125 µg/mL (≈ 0.911 µM) | 32 µg/mL (≈ 233 µM) |
| CC1=C/C(=N\NC(=O)c2ccncc2)c2c(O)cccc2C1=O | 8 µg/mL (≈ 26 µM) | 0.5 µg/mL (≈ 1.63 µM) | 2 µg/mL (≈ 6.51 µM) |
| CC1=CC(=O)c2c(O)cccc2C1=O [PLUMBAGIN] | 32 µg/mL (≈ 170 µM) | 4 µg/mL (≈ 21.3 µM) | 128 µg/mL (≈ 680 µM) |
